{"source": "patent US12594336B2", "about": "“Trace element solution” (WARBURTON TECHNOLOGY LIMITED, priority 2012, dated 2026)", "key": {"[1]": {"assay": "Physical stability study (visual inspection) of stabilizer solutions with vitamin B12 at ambient temperature", "assay_type": "physicochemical", "method": "Based on known injectable processes, with organometallics complex with EDTA, incorporation of vitamin B12 was screened by testing 3 possible different stabilizers. • Second Phase consists in evaluating the physical and chemical stability of the formulations which have been developed during precedent phase with the aim to select stable formulation prototypes.\nPhysical stability study was performed at 5° C., 25° C./60% RH and 40° C./75% RH: T0, T1, T2 and T3 months. A visual inspection was checked at different periods in order to control the absence of precipitation in the formulations. Assay of vitamin B12 was followed up on stability at 25° C./60% RH and 40° C./75% RH: T0, T3 and T6 months.\nThen a quantity of stock solution of vitamin B12 was incorporated in the mix to have a final concentration of 0.15% w/v.\nPhysical stability study was performed on 5 and 10% w/v butaphosphan (with vitamin B12) solutions at ambient temperature: […]"}, "[2]": {"assay": "Feasibility study: incorporation/solubilisation of stabilizers in the EDTA-complexed trace element solution", "description": "Incorporation of vitamin B12 with different stabilizers was screened.\nThe following concentrations of butaphosphan have been tested:"}}}
{"smiles": "NCC(=O)O", "note": "[glycine, Glycine]", "values": [{"measurement": "physical stability, appearance", "setting": "[1]; 5 and 15% w/v glycine with vitamin B12, ambient temperature, T1 week", "result": "dark clear solution with particle"}, {"measurement": "physical stability, appearance", "setting": "[1]; 5 and 15% w/v glycine with vitamin B12, ambient temperature, T2 weeks", "result": "dark clear solution with particle"}, {"measurement": "physical stability, appearance", "setting": "[1]; 5 and 15% w/v glycine with vitamin B12, ambient temperature, T4 weeks", "result": "dark clear solution with particle"}]}
{"smiles": "CCCCNC(C)(C)[PH](=O)O", "note": "[butaphosphan, (1-Butylamino-1-methyl-ethyl)-phosphinic acid]", "values": [{"measurement": "physical stability, appearance", "setting": "[1]; 5 and 10% w/v butaphosphan with vitamin B12 (0.15% w/v), ambient temperature, T1 week", "result": "dark clear solution"}, {"measurement": "physical stability, appearance", "setting": "[1]; 5 and 10% w/v butaphosphan with vitamin B12 (0.15% w/v), ambient temperature, T2 weeks", "result": "dark clear solution"}, {"measurement": "physical stability, appearance", "setting": "[1]; 5 and 10% w/v butaphosphan with vitamin B12 (0.15% w/v), ambient temperature, T4 weeks", "result": "dark clear solution"}, {"measurement": "appearance of solution obtained", "setting": "[2]; butaphosphan 5% w/v", "result": "dark clear solution without particles"}, {"measurement": "appearance of solution obtained", "setting": "[2]; butaphosphan 10% w/v", "result": "dark clear solution without particles"}]}
